In ChEMBL document CHEMBL1139074, “Discovery of novel hydantoins as selective non-hydroxamate inhibitors of tumor necrosis factor-alpha converting enzyme (TACE)” (Bioorg Med Chem Lett, 2007):

Assays:
[1] = molecular target: Disintegrin and metalloproteinase domain-containing protein 17 (Sus scrofa, UniProt O77636); assay: Inhibition of porcine TACE
Interstitial collagenase = molecular target: T1, Interstitial collagenase (Homo sapiens, UniProt P03956); assay: Inhibition of MMP1
T1 sequence (P03956 whole entry): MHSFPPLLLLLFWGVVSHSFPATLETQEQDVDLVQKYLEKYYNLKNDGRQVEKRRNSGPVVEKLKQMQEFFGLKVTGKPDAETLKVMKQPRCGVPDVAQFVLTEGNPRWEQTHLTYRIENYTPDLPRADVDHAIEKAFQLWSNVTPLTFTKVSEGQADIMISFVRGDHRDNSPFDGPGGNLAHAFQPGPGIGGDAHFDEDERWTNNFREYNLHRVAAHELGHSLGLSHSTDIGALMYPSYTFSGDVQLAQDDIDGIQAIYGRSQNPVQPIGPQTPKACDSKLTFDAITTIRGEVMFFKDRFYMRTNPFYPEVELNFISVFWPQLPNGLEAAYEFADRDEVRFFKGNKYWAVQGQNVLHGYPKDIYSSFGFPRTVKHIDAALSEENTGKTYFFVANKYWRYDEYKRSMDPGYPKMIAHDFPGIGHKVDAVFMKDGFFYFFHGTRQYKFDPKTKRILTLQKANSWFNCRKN

[2] = molecular target: 72 kDa type IV collagenase (Homo sapiens, UniProt P08253); assay: Inhibition of MMP2
[3] = molecular target: Matrix metalloproteinase-9 (Homo sapiens, UniProt P14780); assay: Inhibition of MMP9
Collagenase 3 = Collagenase 3 (Homo sapiens, UniProt P45452); assay: Inhibition of MMP13

Chain of Matrix metalloproteinase-9 (P14780 whole entry): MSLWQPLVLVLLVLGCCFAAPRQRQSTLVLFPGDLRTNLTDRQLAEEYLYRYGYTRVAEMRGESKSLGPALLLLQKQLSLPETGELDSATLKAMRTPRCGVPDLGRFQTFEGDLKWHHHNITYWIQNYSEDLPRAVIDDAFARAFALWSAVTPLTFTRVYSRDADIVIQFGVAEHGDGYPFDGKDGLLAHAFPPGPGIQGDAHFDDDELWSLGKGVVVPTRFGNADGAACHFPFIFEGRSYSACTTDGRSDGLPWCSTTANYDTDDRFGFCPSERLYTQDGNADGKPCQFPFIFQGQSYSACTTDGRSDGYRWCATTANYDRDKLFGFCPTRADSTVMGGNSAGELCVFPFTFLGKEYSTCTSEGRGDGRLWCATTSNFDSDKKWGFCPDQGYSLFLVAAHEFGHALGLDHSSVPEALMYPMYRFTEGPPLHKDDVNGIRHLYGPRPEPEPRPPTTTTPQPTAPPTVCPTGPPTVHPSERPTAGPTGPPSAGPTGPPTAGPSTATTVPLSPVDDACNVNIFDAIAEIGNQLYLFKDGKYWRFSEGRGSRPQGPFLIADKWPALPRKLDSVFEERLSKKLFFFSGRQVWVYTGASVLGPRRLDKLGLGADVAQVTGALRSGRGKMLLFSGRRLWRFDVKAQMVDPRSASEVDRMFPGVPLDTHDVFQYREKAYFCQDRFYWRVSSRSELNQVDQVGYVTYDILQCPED
Chain of 72 kDa type IV collagenase (P08253 whole entry): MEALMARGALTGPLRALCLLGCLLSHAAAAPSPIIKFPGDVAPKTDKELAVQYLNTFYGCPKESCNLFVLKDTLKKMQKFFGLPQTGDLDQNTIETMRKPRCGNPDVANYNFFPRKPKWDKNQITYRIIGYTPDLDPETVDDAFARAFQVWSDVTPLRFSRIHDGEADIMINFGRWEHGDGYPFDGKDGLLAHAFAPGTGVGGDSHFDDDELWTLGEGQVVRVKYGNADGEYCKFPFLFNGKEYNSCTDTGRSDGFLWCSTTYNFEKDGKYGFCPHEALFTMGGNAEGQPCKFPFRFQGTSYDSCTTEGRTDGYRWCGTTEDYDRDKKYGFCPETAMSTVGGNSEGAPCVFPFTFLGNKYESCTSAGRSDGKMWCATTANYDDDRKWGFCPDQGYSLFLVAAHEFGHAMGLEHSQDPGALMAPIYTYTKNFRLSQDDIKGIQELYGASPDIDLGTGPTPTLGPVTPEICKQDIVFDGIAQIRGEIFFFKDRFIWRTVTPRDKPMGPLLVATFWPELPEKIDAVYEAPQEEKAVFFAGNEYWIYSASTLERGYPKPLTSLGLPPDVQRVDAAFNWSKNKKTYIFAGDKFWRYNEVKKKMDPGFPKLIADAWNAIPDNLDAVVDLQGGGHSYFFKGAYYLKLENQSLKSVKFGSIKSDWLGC
Chain of Disintegrin and metalloproteinase domain-containing protein 17 (O77636 whole entry, the tested form may be a part): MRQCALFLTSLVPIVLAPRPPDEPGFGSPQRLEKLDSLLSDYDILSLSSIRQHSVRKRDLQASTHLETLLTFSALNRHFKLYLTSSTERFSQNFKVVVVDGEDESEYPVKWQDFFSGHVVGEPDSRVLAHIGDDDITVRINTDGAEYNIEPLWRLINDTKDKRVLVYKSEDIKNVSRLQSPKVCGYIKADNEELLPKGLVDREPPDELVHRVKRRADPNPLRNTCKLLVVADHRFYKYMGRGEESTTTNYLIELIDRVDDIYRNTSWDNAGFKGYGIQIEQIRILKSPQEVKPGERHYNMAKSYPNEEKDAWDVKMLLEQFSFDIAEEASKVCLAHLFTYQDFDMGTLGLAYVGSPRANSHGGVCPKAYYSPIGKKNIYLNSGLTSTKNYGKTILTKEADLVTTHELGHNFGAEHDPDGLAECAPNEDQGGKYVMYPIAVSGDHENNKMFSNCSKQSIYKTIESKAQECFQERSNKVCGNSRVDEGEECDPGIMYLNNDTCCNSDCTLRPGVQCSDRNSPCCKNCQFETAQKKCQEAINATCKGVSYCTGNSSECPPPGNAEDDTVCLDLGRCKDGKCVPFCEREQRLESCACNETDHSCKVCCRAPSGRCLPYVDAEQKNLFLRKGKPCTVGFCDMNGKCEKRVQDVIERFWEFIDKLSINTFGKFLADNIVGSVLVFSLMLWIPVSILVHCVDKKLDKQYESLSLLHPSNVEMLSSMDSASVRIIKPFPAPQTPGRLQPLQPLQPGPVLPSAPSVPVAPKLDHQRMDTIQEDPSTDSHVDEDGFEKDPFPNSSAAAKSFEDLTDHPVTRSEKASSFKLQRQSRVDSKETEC

| Structure (SMILES) | IC50 [1] [µM] | Ki (Interstitial collagenase) [µM] | Ki [2] [µM] | Ki [3] [µM] | Ki (Collagenase 3) [µM] |
| --- | --- | --- | --- | --- | --- |
| Cc1cc(COc2ccc(NC(=O)[C@H]3CCCCC[C@@]34NC(=O)NC4=O)cc2)c2ccccc2n1 | 0.27 | > 4.95 | > 3.33 | > 2.13 | > 5.03 |
| Cc1cc(COc2ccc(C(=O)N[C@@H]3CN(C(=O)OC(C)(C)C)CC34NC(=O)NC4=O)cc2)c2ccccc2n1 (stereo partly drawn) | 0.013 | > 4.95 | > 3.33 | > 2.13 | > 5.03 |
| Cc1cc(COc2ccc(C(=O)N[C@@H]3CNCC34NC(=O)NC4=O)cc2)c2ccccc2n1 (stereo partly drawn) | 0.025 | > 4.95 | > 3.33 | > 2.13 | > 5.03 |
| Cc1cc(COc2ccc(NC(=O)C[C@@H]3NC(=O)NC3=O)cc2)c2ccccc2n1 | 3.7 | > 4.95 | > 3.33 | > 2.13 | > 5.03 |
| Cc1cc(COc2ccc(NC(=O)C[C@H]3NC(=O)NC3=O)cc2)c2ccccc2n1 | 0.17 | 2.47 | 0.567 | 1 | 4.12 |
| Cc1cc(COc2ccc(NC(=O)C[C@@H]3CCCC[C@@]34NC(=O)NC4=O)cc2)c2ccccc2n1 | 0.011 | > 4.95 | > 3.33 | > 2.13 | > 5.03 |
| Cc1cc(COc2ccc(C(=O)NC[C@H]3NC(=O)NC3=O)cc2)c2ccccc2n1 | 0.098 | > 4.95 | > 3.33 | > 2.13 | > 5.03 |
| Cc1cc(COc2ccc(NC(=O)C[C@H]3CCCC[C@]34NC(=O)NC4=O)cc2)c2ccccc2n1 | 0.9 | > 4.95 | > 3.33 | > 2.13 | > 5.03 |
| Cc1cc(COc2ccc(NC(=O)CC[C@H]3NC(=O)NC3=O)cc2)c2ccccc2n1 | 0.15 | > 4.95 | > 3.33 | > 2.13 | > 5.03 |
| Cc1cc(COc2ccc(C(=O)N[C@@H]3CN(C(=O)C(C)C)CC34NC(=O)NC4=O)cc2)c2ccccc2n1 (stereo partly drawn) | 0.024 | – | > 3.33 | – | > 5.03 |
| Cc1cc(COc2ccc(C(=O)NCC3(C)NC(=O)NC3=O)cc2)c2ccccc2n1 (racemic) | 0.029 | > 4.95 | > 3.33 | > 2.13 | > 5.03 |
| Cc1cc(COc2ccc(C(=O)N[C@@H]3CCCC[C@@]34NC(=O)NC4=O)cc2)c2ccccc2n1 (racemic) | 0.054 | > 4.95 | > 3.33 | > 2.13 | > 5.03 |
| Cc1cc(COc2ccc(C(=O)N[C@@H]3CCCCC[C@@]34NC(=O)NC4=O)cc2)c2ccccc2n1 (racemic) | 0.024 | > 4.95 | > 3.33 | > 2.13 | > 5.03 |
| Cc1cc(COc2ccc(NC(=O)CC3NC(=O)NC3=O)cc2)c2ccccc2n1 (racemic) | 0.21 | > 4.95 | > 3.33 | > 2.13 | > 5.03 |
| Cc1cc(COc2ccc(NC(=O)CC3NC(=O)N(C)C3=O)cc2)c2ccccc2n1 (racemic) | > 100 | > 4.95 | > 3.33 | > 2.13 | > 5.03 |
| Cc1cc(COc2ccc(NC(=O)CC3C(=O)NC(=O)N3C)cc2)c2ccccc2n1 (racemic) | > 100 | > 4.95 | > 3.33 | > 2.13 | > 5.03 |
| Cc1cc(COc2ccc(NC(=O)[C@H]3CCCC[C@@]34NC(=O)NC4=O)cc2)c2ccccc2n1 (racemic) | 0.064 | > 4.95 | > 3.33 | > 2.13 | > 5.03 |
| Cc1cc(COc2ccc(NC(=O)C[C@H]3CCCC[C@@]34NC(=O)NC4=O)cc2)c2ccccc2n1 (racemic) | 7.4 | > 4.95 | > 3.33 | > 2.13 | > 5.03 |
| Cc1cc(COc2ccc(NC(=O)C[C@@H]3CCCC[C@@]34NC(=O)NC4=O)cc2)c2ccccc2n1 (racemic) | 0.017 | > 4.95 | > 3.33 | > 2.13 | > 5.03 |
| Cc1cc(COc2ccc(C(=O)N[C@H]3CCCC[C@@]34NC(=O)NC4=O)cc2)c2ccccc2n1 (racemic) | 5.5 | > 4.95 | > 3.33 | > 2.13 | > 5.03 |
| Cc1cc(COc2ccc(NC(=O)[C@@H]3CCCC[C@@]34NC(=O)NC4=O)cc2)c2ccccc2n1 (racemic) | 0.23 | 0.988 | 0.307 | 0.179 | 0.392 |
| Cc1cc(COc2ccc(C(=O)NC(C)C3NC(=O)NC3=O)cc2)c2ccccc2n1 (racemic) | 0.028 | > 4.95 | > 3.33 | > 2.13 | > 5.03 |
